These results are taken from ChEMBL document CHEMBL1287713, “Discovery and selectivity-profiling of 4-benzylamino 1-aza-9-oxafluorene derivatives as lead structures for IGF-1R inhibitors” (Bioorg Med Chem Lett, 2010).

Each structure is given as a SMILES string. Where only a bound is given, the exact number is not on record here.

For assay [1], the target named is Insulin-like growth factor 1 receptor (Homo sapiens, UniProt P08069). The assay can be described thus: Inhibition of IGF1R.
The target in assay [2] is Vascular endothelial growth factor receptor 2 (Homo sapiens, UniProt P35968). The assay can be described thus: Inhibition of VEGFR2.
Assay [3] addresses Epidermal growth factor receptor (Homo sapiens, UniProt P00533). The assay can be described thus: Inhibition of EGFR.
Assay [4] concerns the target Vascular endothelial growth factor receptor 3 (Homo sapiens, UniProt P35916). The assay can be described thus: Inhibition of VEGFR3.
The target of assay [5] is Serine/threonine-protein kinase PLK1 (Homo sapiens, UniProt P53350). The assay can be described thus: Inhibition of human PLK1.
The target in assay [6] is Cyclin-dependent kinase 5/CDK5 activator 1 (Homo sapiens, UniProt Q00535). The assay can be described thus: Inhibition of human CDK5/p25. In kind it is protein-complex assay.
A further assay concerns the target Aurora kinase A (Homo sapiens, UniProt O14965). The assay can be described thus: Inhibition of human Aurora A.
The target in another assay is Angiopoietin-1 receptor (Homo sapiens, UniProt Q02763). As to the kind of experiment: Inhibition of human TIE2.
For assay [7], the target named is Protein kinase C iota type (Homo sapiens, UniProt P41743). As to the kind of experiment: Inhibition of human PKC-iota.
The next assay has as its target Aurora kinase C (Homo sapiens, UniProt Q9UQB9). The assay can be described thus: Inhibition of human Aurora C.
Assay [8] addresses Mitogen-activated protein kinase 14 (Homo sapiens, UniProt Q16539). As to the kind of experiment: Inhibition of human p38-alpha.
Assay [9] concerns the target Protein kinase C gamma type (Homo sapiens, UniProt P05129). As to the kind of experiment: Inhibition of human PKC-gamma.
The next assay concerns the target Focal adhesion kinase 1 (Homo sapiens, UniProt Q05397). As to the kind of experiment: Inhibition of human FAK.
The target in the next assay is CDK6/cyclin D1 (Homo sapiens, UniProt Q00534). As to the kind of experiment: Inhibition of human CDK6/Cyclin D1. The format is protein-complex assay.
For the next assay, the target named is Misshapen-like kinase 1 (Homo sapiens, UniProt Q8N4C8). The assay can be described thus: Inhibition of human INK1.
Assay [10] has as its target Serine/threonine-protein kinase Nek3 (Homo sapiens, UniProt P51956). The assay can be described thus: Inhibition of human Nek3.
Assay [11] concerns the target Serine/threonine-protein kinase VRK1 (Homo sapiens, UniProt Q99986). The assay can be described thus: Inhibition of human VRK1.
The target in assay [12] is Homeodomain-interacting protein kinase 1 (Homo sapiens, UniProt Q86Z02). The assay can be described thus: Inhibition of human HIPK1.
The next assay concerns the target Insulin receptor (Homo sapiens, UniProt P06213). As to the kind of experiment: Inhibition of human InsR.
The target of the next assay is LIM domain kinase 1 (Homo sapiens, UniProt P53667). The assay can be described thus: Inhibition of human LIMK1.
Assay [13] concerns the target Tyrosine-protein kinase ABL1 (Homo sapiens, UniProt P00519). The assay can be described thus: Inhibition of human ABL1.
Assay [14] concerns the target Insulin receptor-related protein (Homo sapiens, UniProt P14616). As to the kind of experiment: Inhibition of human InsRR.
Assay [15] deals with Cyclin-dependent kinase 4/cyclin D1 (Homo sapiens, UniProt P11802). The assay can be described thus: Inhibition of human CDK4/Cyclin D1. The format is protein-complex assay.
Assay [16] deals with Interleukin-1 receptor-associated kinase 1 (Homo sapiens, UniProt P51617). The assay can be described thus: Inhibition of human IRAK1.
Assay [17] has as its target Dual specificity protein kinase CLK1 (Homo sapiens, UniProt P49759). As to the kind of experiment: Inhibition of human CLK1.
Assay [18] concerns the target Tyrosine-protein kinase ABL2 (Homo sapiens, UniProt P42684). The assay can be described thus: Inhibition of human ABL2.
Another assay addresses Wee1-like protein kinase (Homo sapiens, UniProt P30291). The assay can be described thus: Inhibition of human WEE1.
For assay [19], the target named is Dual specificity tyrosine-phosphorylation-regulated kinase 1A (Homo sapiens, UniProt Q13627). As to the kind of experiment: Inhibition of human DYRK1A.
Assay [20] addresses Mitogen-activated protein kinase 3 (Homo sapiens, UniProt P27361). The assay can be described thus: Inhibition of human ERK1.
Assay [21] can be described thus: Growth inhibition of human NCI60 cells by SBR assay. In kind it is functional.
Assay [22] can be described thus: Cytotoxicity against human NCI60 cells by SBR assay. The format is functional.

Sequence of Epidermal growth factor receptor (P00533 whole entry): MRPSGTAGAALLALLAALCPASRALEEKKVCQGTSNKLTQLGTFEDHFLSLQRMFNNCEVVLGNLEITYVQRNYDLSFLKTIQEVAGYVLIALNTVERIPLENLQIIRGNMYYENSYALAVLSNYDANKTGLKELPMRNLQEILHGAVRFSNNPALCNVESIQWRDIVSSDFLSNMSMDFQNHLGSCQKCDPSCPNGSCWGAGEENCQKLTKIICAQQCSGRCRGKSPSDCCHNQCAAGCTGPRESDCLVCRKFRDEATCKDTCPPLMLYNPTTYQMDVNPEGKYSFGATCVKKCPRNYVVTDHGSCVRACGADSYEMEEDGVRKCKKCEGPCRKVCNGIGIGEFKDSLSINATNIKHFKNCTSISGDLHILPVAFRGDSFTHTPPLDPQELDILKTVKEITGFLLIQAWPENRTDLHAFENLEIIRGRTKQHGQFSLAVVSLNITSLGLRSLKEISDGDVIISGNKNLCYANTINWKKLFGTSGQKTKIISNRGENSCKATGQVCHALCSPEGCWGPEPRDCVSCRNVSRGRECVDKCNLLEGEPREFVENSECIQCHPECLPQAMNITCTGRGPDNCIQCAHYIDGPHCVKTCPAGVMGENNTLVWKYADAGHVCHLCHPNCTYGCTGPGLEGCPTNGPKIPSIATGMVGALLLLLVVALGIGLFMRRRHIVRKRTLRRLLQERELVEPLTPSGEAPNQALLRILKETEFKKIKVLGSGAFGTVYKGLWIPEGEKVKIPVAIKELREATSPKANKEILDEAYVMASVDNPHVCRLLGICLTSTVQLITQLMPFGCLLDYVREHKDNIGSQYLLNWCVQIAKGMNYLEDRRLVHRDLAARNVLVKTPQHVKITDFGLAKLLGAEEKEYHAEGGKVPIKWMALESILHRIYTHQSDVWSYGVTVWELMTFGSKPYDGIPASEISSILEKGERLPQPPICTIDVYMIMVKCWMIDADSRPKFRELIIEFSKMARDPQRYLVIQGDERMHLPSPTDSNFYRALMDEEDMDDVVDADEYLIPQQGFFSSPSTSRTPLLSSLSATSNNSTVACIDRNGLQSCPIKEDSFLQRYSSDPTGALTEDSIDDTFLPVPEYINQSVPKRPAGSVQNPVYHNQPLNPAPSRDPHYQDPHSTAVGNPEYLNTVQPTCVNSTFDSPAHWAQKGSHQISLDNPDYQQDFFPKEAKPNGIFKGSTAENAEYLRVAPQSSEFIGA
Sequence of Insulin-like growth factor 1 receptor (P08069 31-736 limits assumed): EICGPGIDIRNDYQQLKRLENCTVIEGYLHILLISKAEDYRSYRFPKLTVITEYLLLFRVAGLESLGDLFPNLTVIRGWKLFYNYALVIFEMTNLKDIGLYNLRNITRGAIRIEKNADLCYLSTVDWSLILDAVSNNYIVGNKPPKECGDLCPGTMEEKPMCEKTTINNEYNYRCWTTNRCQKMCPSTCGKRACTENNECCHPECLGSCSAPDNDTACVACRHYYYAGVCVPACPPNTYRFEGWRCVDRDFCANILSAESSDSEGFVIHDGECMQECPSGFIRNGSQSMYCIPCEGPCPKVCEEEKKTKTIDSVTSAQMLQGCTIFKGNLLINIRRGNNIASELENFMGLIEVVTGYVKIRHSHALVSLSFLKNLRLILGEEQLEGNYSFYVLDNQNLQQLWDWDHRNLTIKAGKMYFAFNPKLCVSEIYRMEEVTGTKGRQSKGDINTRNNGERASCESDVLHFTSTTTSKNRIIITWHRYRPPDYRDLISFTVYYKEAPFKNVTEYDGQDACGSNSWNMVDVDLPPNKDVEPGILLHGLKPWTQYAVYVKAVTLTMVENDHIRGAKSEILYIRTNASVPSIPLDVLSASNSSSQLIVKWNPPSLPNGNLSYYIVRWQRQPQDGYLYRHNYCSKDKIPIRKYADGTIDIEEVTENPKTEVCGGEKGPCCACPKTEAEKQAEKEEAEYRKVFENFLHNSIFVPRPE
Sequence of Insulin-like growth factor 1 receptor (P08069 741-1367 limits assumed): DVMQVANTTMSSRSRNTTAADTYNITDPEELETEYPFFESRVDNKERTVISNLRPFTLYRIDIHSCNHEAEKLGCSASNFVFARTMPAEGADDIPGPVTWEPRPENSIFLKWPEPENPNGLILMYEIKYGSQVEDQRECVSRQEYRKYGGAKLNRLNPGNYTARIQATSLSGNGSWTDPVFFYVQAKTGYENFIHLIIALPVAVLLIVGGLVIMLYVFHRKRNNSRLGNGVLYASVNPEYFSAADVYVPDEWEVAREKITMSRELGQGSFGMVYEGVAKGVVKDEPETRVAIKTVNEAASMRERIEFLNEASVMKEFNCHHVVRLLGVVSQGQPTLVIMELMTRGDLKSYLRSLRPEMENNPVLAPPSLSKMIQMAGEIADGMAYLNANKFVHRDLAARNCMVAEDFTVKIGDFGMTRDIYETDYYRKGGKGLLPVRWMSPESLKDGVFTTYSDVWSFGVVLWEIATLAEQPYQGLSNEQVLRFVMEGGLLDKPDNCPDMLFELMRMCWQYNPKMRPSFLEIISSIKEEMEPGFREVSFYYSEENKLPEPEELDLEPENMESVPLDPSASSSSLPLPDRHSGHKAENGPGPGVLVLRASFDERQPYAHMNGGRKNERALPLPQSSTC
Sequence of Vascular endothelial growth factor receptor 2 (P35968 whole entry): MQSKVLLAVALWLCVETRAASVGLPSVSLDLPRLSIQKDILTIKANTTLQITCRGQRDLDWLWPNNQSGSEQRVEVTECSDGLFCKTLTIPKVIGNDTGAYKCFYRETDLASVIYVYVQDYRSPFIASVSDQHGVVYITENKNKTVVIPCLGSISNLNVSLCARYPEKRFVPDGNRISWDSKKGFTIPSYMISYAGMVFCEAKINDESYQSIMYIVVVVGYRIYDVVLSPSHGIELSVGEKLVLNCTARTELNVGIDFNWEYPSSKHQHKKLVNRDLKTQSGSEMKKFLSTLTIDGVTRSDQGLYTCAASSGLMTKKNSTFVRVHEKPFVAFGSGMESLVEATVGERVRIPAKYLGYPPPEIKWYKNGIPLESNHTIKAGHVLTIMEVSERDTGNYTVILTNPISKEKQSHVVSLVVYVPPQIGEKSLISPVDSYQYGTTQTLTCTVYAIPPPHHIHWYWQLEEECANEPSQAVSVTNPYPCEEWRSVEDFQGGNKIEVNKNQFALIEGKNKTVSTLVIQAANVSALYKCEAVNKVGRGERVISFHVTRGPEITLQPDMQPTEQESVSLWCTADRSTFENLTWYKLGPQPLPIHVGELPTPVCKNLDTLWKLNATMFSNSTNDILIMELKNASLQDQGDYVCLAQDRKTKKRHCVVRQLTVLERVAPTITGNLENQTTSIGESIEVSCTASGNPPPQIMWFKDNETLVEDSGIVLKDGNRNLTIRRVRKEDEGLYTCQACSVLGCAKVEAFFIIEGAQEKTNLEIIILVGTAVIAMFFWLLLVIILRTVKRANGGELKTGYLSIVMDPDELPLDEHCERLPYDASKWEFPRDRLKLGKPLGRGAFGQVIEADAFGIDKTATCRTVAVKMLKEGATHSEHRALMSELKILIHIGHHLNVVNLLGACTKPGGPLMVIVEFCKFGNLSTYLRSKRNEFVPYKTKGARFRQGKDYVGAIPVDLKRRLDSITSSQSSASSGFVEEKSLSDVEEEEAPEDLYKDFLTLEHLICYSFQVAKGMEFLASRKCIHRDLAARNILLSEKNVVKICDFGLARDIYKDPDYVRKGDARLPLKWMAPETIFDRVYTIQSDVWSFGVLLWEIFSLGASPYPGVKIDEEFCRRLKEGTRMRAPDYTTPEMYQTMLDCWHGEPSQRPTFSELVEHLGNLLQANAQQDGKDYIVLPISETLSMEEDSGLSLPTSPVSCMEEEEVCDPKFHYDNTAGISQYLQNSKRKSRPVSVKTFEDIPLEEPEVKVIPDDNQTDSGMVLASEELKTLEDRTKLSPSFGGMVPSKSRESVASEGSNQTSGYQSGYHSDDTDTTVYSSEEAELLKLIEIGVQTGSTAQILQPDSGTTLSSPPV
Sequence of Homeodomain-interacting protein kinase 1 (Q86Z02 whole entry): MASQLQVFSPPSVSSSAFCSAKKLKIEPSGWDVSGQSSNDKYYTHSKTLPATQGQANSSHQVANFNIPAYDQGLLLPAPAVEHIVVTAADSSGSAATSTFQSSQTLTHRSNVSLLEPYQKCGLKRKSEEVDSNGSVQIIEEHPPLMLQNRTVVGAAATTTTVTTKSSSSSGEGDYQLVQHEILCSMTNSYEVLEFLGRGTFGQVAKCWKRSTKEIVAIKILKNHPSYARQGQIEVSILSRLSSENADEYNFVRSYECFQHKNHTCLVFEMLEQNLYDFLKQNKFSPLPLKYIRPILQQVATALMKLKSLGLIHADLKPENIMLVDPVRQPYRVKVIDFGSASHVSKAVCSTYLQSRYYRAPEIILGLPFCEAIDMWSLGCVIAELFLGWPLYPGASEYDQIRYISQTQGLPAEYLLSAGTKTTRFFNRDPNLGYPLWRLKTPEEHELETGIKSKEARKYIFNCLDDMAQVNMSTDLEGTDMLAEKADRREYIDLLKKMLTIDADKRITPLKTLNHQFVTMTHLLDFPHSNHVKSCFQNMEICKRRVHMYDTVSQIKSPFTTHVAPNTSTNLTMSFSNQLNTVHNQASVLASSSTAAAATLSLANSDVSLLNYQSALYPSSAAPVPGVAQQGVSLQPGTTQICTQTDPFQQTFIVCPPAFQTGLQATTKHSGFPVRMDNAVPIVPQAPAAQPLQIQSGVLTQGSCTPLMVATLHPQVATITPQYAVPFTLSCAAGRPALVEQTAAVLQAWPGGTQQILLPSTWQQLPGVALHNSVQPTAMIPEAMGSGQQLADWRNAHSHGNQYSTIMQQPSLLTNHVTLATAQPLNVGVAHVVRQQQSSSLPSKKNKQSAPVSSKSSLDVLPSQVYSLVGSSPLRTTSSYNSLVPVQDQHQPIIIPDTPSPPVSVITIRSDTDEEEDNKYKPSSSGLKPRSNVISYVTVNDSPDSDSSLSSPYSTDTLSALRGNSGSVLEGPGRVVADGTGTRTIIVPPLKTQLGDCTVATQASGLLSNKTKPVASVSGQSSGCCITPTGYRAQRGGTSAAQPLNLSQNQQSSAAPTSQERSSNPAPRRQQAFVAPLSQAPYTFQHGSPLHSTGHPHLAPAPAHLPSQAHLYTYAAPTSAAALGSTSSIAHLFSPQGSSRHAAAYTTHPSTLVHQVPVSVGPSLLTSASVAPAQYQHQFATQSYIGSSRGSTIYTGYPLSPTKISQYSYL

In the case of `c1ccc(CNc2ccnc3oc4ccccc4c23)cc1`, the inhibitory constant (Ki) – broadly, the dissociation constant of the complex between target and ligand, obtained from inhibition or displacement – in [1] stood at 0.37 µM; in assay [2], 0.47 µM; in assay [3], 0.59 µM; in [4], 1.09 µM.
In the same order, the values of `c1ccc(CCNc2ccnc3oc4ccccc4c23)cc1` are 2.11 µM, 2.01 µM, 3.45 µM and 9.39 µM.
The matching figures for `c1ccc2c(CNc3ccnc4oc5ccccc5c34)cccc2c1`: 0.57 µM, 0.3 µM, 0.68 µM and 1.09 µM.
For `COc1ccc(CNc2ccnc3oc4ccccc4c23)cc1`, the IC50 (in general, the point on the concentration scale where inhibition reaches its midpoint) in assay [5] was 271 µM; against Focal adhesion kinase 1, 194 µM; at CDK6/cyclin D1, 129 µM; in assay [11], 129 µM; at Insulin receptor, 622 µM; against LIM domain kinase 1 it was 759 µM. Moreover, the IC50 turned out to be 392 µM in [13], 182 µM in assay [14] and 376 µM in [15]. The Ki in [6] is more than 1000 µM; in [1], 0.15 µM; at Aurora kinase A it was more than 1000 µM; in [2], more than 1000 µM; on Angiopoietin-1 receptor it was more than 1000 µM; in assay [7] it was more than 1000 µM. Further, the Ki (on Aurora kinase C; in assay [8]; in assay [9]; on Misshapen-like kinase 1; in [10]; in [12]) was more than 1000 µM in each case. Further, the inhibition constant Ki (in [4]; in [16]; in assay [17]; in [18]; on Wee1-like protein kinase; in assay [19]) was more than 1000 µM throughout. In [20], this compound had an inhibitory constant (Ki) of more than 1000 µM.
Turning to `Clc1cccc(CNc2ccnc3oc4ccccc4c23)c1`, the inhibition constant (Ki) was 0.58 µM in assay [1], more than 1000 µM in [2], more than 1000 µM in assay [3] and more than 1000 µM in assay [4].
Consider `Clc1ccc(CNc2ccnc3oc4ccccc4c23)cc1`, for which the inhibition constant Ki in assay [1] stood at 0.11 µM; in assay [2], 0.18 µM; in [3], 0.5 µM; in assay [4], 0.68 µM. For the same compound, in assay [21], growth was halved (GI50) at 33.9 µM. In addition, the median lethal concentration (LC50) (in general, the concentration lethal to half of the exposed cells or organisms) in assay [22] was more than 100 µM.
Consider `c1cncc(CNc2ccnc3oc4ccccc4c23)c1`, for which the inhibition constant (Ki) in assay [1], in assay [2], in assay [3] and in assay [4] was more than 1000 µM each time.
With `N[C@@H](Cc1ccc(N(CCCl)CCCl)cc1)C(=O)O`, the 50% growth inhibitory concentration (GI50) (commonly the concentration at which growth is held to half of that of the control) in [21] was 33.1 µM.
On the same count and under the same terms, the result for `COc1cc([C@@H]2c3cc4c(cc3[C@@H](O[C@@H]3O[C@@H]5CO[C@@H](C)O[C@H]5[C@H](O)[C@H]3O)[C@H]3COC(=O)[C@H]23)OCO4)cc(OC)c1O` [ETOPOSIDE] reads 38.9 µM; that for `CCc1c2c(nc3ccc(OC(=O)N4CCC(N5CCCCC5)CC4)cc13)-c1cc3c(c(=O)n1C2)COC(=O)[C@]3(O)CC` [IRINOTECAN], 14.1 µM.
